Test results published in patent US20240199649A1 (Biosplice Therapeutics, Inc., priority 2022, published 2024).

Target: recombinant DYRK1A kinase (Homo sapiens (Human), UniProt Q13627)
Test: DYRK1A kinase assay (Ser/Thr 18 peptide Z-lyte FRET assay)
Assay type: biochemical
Settings: DYRK1A 0.25 μg/mL, ATP 15 μM, Ser/Thr peptide 18 4 μM; one hour at room temperature; 11-point dose-response, duplicate
Protocol: Representative compounds were screened using the assay procedure for DYRK1A kinase activity as described below.
Each compound was dissolved in DMSO as a 10 mM stock and used to prepare compound source plates.
This is a non-radioactive assay using fluorescence resonance energy transfer (FRET) between coumarin and fluorescein to detect kinase activity which is represented as a ratio of coumarin emission/fluorescein emission.
The mixture was allowed to incubate with the representative compounds for one hour at room temperature. All reactions were performed in duplicate. Unphosphorylated (“0% Control”) and phosphorylated (“100% control”) forms of Ser/Thr 18 served as control reactions. Additionally, an 11-point dose-response curve of Staurosporine (1 uM top) was run to serve as a positive compound control.
After incubation, Development Reagent A was diluted in Development Buffer then added to the reaction and allowed to further incubate for one hour at room temperature.
Dose-response curves were generated, and inhibitory concentration (IC50) values were calculated using non-linear regression curve fit in the Dotmatics' Studies Software (Bishops Stortford, UK).

IC50 | Compound
0.8 nM | CNc1nc(N[C@H]2CCN(C)C[C@H]2F)nn2ccc(-c3ccc4nc(C)n(CC(F)F)c4n3)c12 [Compound 204, 5-(3-(2,2-Difluoroethyl)-2-methyl-3H-imidazo[4,5-b]pyridin-5-yl)-N^2-((3R,4S)-3-fluoro-1-methylpiperidin-4-yl)-N^4-methylpyrrolo[2,1-f][1,2,4]triazine-2,4-diamine]
1 nM | CNc1nc(N[C@@H]2CCN(C)C[C@@H]2F)nn2ccc(-c3ccc4nc(C)n(CC(F)F)c4n3)c12 [Compound 205, 5-(3-(2,2-Difluoroethyl)-2-methyl-3H-imidazo[4,5-b]pyridin-5-yl)-N^2-((3S,4R)-3-fluoro-1-methylpiperidin-4-yl)-N^4-methylpyrrolo[2,1-f][1,2,4]triazine-2,4-diamine]
1.1 nM | CNc1nc(N[C@@H]2CCN(C)CC2(F)F)nn2ccc(-c3ccc4nc(C)n(CC(F)F)c4n3)c12 [Compound 214, (R)—N^2-(3,3-Difluoro-1-methylpiperidin-4-yl)-5-(3-(2,2-difluoroethyl)-2-methyl-3H-imidazo[4,5-b]pyridin-5-yl)-N^4-methylpyrrolo[2,1-f][1,2,4]triazine-2,4-diamine]
4.4 nM | CNc1nc(N[C@H]2CCN(C)CC2(F)F)nn2ccc(-c3ccc4nc(C)n(CC(F)F)c4n3)c12 [Compound 215, (S)—N^2-(3,3-Difluoro-1-methylpiperidin-4-yl)-5-(3-(2,2-difluoroethyl)-2-methyl-3H-imidazo[4,5-b]pyridin-5-yl)-N^4-methylpyrrolo[2,1-f][1,2,4]triazine-2,4-diamine]
0.8 nM | CNc1nc(N[C@@H]2CCN(C3COC3)CC2(F)F)nn2ccc(-c3ccc4nc(C)n(CC(F)F)c4n3)c12 [Compound 216, (R)—N^2-(3,3-Difluoro-1-(oxetan-3-yl)piperidin-4-yl)-5-(3-(2,2-difluoroethyl)-2-methyl-3H-imidazo[4,5-b]pyridin-5-yl)-N^4-methylpyrrolo[2,1-f][1,2,4]triazine-2,4-diamine]
1.7 nM | CNc1nc(N[C@H]2CCN(C3COC3)CC2(F)F)nn2ccc(-c3ccc4nc(C)n(CC(F)F)c4n3)c12 [Compound 217, (S)—N^2-(3,3-Difluoro-1-(oxetan-3-yl)piperidin-4-yl)-5-(3-(2,2-difluoroethyl)-2-methyl-3H-imidazo[4,5-b]pyridin-5-yl)-N^4-methylpyrrolo[2,1-f][1,2,4]triazine-2,4-diamine]
14.2 nM | CNc1nc(NC2(C)CCOCC2)nn2ccc(-c3ccc4nc(C)n(CC(F)F)c4n3)c12 [Compound 218, 5-(3-(2,2-Difluoroethyl)-2-methyl-3H-imidazo[4,5-b]pyridin-5-yl)-N^4-methyl-N^2-(4-methyltetrahydro-2H-pyran-4-yl)pyrrolo[2,1-f][1,2,4]triazine-2,4-diamine]
6.7 nM | CNc1nc(N[C@@H]2[C@@H]3CNC[C@@H]32)nn2ccc(-c3ccc4nc(C)n(CC(F)F)c4n3)c12 [Compound 219, N^2-((1R,5S,6r)-3-Azabicyclo[3.1.0]hexan-6-yl)-5-(3-(2,2-difluoroethyl)-2-methyl-3H-imidazo[4,5-b]pyridin-5-yl)-N^4-methylpyrrolo[2,1-f][1,2,4]triazine-2,4-diamine]
9.7 nM | CNc1nc(N[C@@H]2[C@@H]3CN(C(C)=O)C[C@@H]32)nn2ccc(-c3ccc4nc(C)n(CC(F)F)c4n3)c12 [Compound 220, 1-((1R,5S,6r)-6-((5-(3-(2,2-Difluoroethyl)-2-methyl-3H-imidazo[4,5-b]pyridin-5-yl)-4-(methylamino)pyrrolo[2,1-f][1,2,4]triazin-2-yl)amino)-3-azabicyclo[3.1.0]hexan-3-yl)ethan-1-one]
1.6 nM | CNc1nc(N[C@H]2[C@@H]3COC[C@@H]32)nn2ccc(-c3ccc4nc(C)n(CC(F)F)c4n3)c12 [Compound 221, N^2-((1R,5S,6r)-3-Oxabicyclo[3.1.0]hexan-6-yl)-5-(3-(2,2-difluoroethyl)-2-methyl-3H-imidazo[4,5-b]pyridin-5-yl)-N^4-methylpyrrolo[2,1-f][1,2,4]triazine-2,4-diamine]
4.1 nM | CNc1nc(N[C@@H]2[C@@H]3COC[C@@H]32)nn2ccc(-c3ccc4nc(C)n(CC(F)F)c4n3)c12 [Compound 222, N^2-((1R,5S,6s)-3-Oxabicyclo[3.1.0]hexan-6-yl)-5-(3-(2,2-difluoroethyl)-2-methyl-3H-imidazo[4,5-b]pyridin-5-yl)-N^4-methylpyrrolo[2,1-f][1,2,4]triazine-2,4-diamine]
1.1 nM | CNc1nc(NC2CC3(CCN(C(C)=O)CC3)C2)nn2ccc(-c3ccc4nc(C)n(CC(F)F)c4n3)c12 [Compound 223, 1-(2-((5-(3-(2,2-Difluoroethyl)-2-methyl-3H-imidazo[4,5-b]pyridin-5-yl)-4-(methylamino)pyrrolo[2,1-f][1,2,4]triazin-2-yl)amino)-7-azaspiro[3.5]nonan-7-yl)ethan-1-one]
0.2 nM | CNc1nc(NC2CCC3(CC2)CN(C(C)=O)C3)nn2ccc(-c3ccc4nc(C)n(CC(F)F)c4n3)c12 [Compound 224, 1-(7-((5-(3-(2,2-Difluoroethyl)-2-methyl-3H-imidazo[4,5-b]pyridin-5-yl)-4-(methylamino)pyrrolo[2,1-f][1,2,4]triazin-2-yl)amino)-2-azaspiro[3.5]nonan-2-yl)ethan-1-one]
0.8 nM | CNc1nc(NC2CCC3(CC2)COC3)nn2ccc(-c3ccc4nc(C)n(CC(F)F)c4n3)c12 [Compound 225, 5-(3-(2,2-Difluoroethyl)-2-methyl-3H-imidazo[4,5-b]pyridin-5-yl)-N^4-methyl-N^2-(2-oxaspiro[3.5]nonan-7-yl)pyrrolo[2,1-f][1,2,4]triazine-2,4-diamine]
2 nM | CNc1nc(N[C@H]2CC[C@@]3(CCO3)CC2)nn2ccc(-c3ccc4nc(C)n(CC(F)F)c4n3)c12 [Compound 226, 5-(3-(2,2-Difluoroethyl)-2-methyl-3H-imidazo[4,5-b]pyridin-5-yl)-N^4-methyl-N^2-((4r,7r)-1-oxaspiro[3.5]nonan-7-yl)pyrrolo[2,1-f][1,2,4]triazine-2,4-diamine]
3.3 nM | CNc1nc(N[C@H]2CC[C@]3(CCO3)CC2)nn2ccc(-c3ccc4nc(C)n(CC(F)F)c4n3)c12 [Compound 227, 5-(3-(2,2-Difluoroethyl)-2-methyl-3H-imidazo[4,5-b]pyridin-5-yl)-N^4-methyl-N^2-((4s,7s)-1-oxaspiro[3.5]nonan-7-yl)pyrrolo[2,1-f][1,2,4]triazine-2,4-diamine]
2.8 nM | CNc1nc(NC2C3CCC2CN(C)C3)nn2ccc(-c3ccc4nc(C)n(CC(F)F)c4n3)c12 (stereo not drawn) [Compound 228, 5-(3-(2,2-Difluoroethyl)-2-methyl-3H-imidazo[4,5-b]pyridin-5-yl)-N^4-methyl-N^2-(3-methyl-3-azabicyclo[3.2.1]octan-8-yl)pyrrolo[2,1-f][1,2,4]triazine-2,4-diamine]
2.2 nM | CNc1nc(N[C@@H]2CCNCC2(F)F)nn2ccc(-c3ccn4nccc4n3)c12 [Compound 339, (R)—N^2-(3,3-Difluoropiperidin-4-yl)-N^4-methyl-5-(pyrazolo[1,5-a]pyrimidin-5-yl)pyrrolo[2,1-f][1,2,4]triazine-2,4-diamine]
